Test results reported in patent US20180002366A1, “4'-SUBSTITUTED NUCLEOSIDE REVERSE TRANSCRIPTASE INHIBITORS” (MERCK SHARP & DOHME CORP., priority 2014, published 2018).

Assays:
[1] = target: T1, HIV-1 RT enzyme (Human immunodeficiency virus type 1 group M subtype B, UniProt P03366); assay: RT Polymerase Assay; type: biochemical
T1 construct: Full-length wild-type and 2 mutant RT proteins were expressed in Escherichia coli BL21(DE3) cells and purified; made in house; host or cells: Escherichia coli BL21(DE3)
Method: Full-length wild-type and 2 mutant RT proteins were expressed in Escherichia coli BL21(DE3) cells and purified. Briefly, the heterodimeric nucleic acid substrate used in the HIV-1 RT polymerase reactions was generated by annealing biotinylated DNA primer to a 500 nucleotide RNA template. The HIV-1 RT enzyme (final concentration of […]) was combined with an inhibitor compound or DMSO (10% DMSO in the final reaction mixture) in assay buffer (62.5 mM Tris-HCl, pH 7.8, 1.25 mM dithiothreitol, 7.5 mM MgCl2, 100 mM KCl, 0.03% CHAPS, 0.125 mM EGTA). This mixture was pre-incubated for 30 minutes at room temperature in microtiter plates. The polymerization reaction was initiated by the addition of template/primer substrate (final concentration: 16.6 nM) and dNTPs (final concentration: 2 μM dCTP, dGTP, dATP, and 66.6 nM Ru-dUTP). After 90 min of incubation at 37° C., reactions were quenched by the addition of EDTA (25 mM). The resulting mixture was incubated for an additional 5 minutes at room temperature followed by transferring the solution (50 μL) to blocked avidin plate from Meso Scale Discovery (MSD). The mixtures were incubated at room temperature for 60 min prior to the quantification of the reaction product via an ECL 6000 imager instrument.

[2] = system: HIV-1 (H9IIIB virus) replication in MT4-GFP cells; assay: Antiviral Persistence assay; conditions: for Fold shift IC50 72 h/24 h: ratio of IC50 72 h to IC50 24 h
Method: HIV-1 replication was monitored using MT4-gag-GFP clone D3 (hereafter designate MT4-GFP), which are MT-4 cells modified to harbor a GFP reporter gene, the expression of which is dependent on the HIV-1 expressed proteins tat and rev. Productive infection of an MT4-GFP cell with HIV-1 results in GFP expression approximately 24 h post-infection. MT4-GFP cells were maintained at 37° C./5% CO2/90% relative humidity in RPMI 1640 supplemented with 10% fetal bovine serum, 100 U/mL penicillin/streptomycin, and 400 μg/mL G418 to maintain the reporter gene. For 72 hour time point persistence assay (72 h plate) and 24 hour time point control assay (24 h plate), MT4-GFP cells were washed and re-suspended in RPMI 1640 containing 10% normal human serum at either 1.6×10^5 or 2.4×10^5 cells/mL (10% NHS). Compound plates were prepared by dispensing compounds dissolved in DMSO into wells of 384 well cell culture plates ([…]) using an ECHO acoustic dispenser. Each compound was tested in a 10 point serial 3-fold dilution (typical final concentrations: 4.2 μM-0.21 nM). Controls included no inhibitor (DMSO only) and a combination of three antiviral agents (efavirenz, indinavir, and an integrase strand transfer inhibitor at final concentrations of 4 μM each). Cells were added (50 μL/well) to compound plates and were incubated at 37° C./5% CO2/90% relative humidity for 24 hours. The cells were washed with 5×40 uL of RPMI 1640 supplemented with 10% NHS and 100 U/mL penicillin/streptomycin. 72 h plate was return back to 37° C. incubator for additional 48 hour incubation. 40 uL of the cells from each well of the 24 h plate or the 72 h plate (after 48 hour incubation post wash) were transferred to a poly-D-lysine coated plate. The cells were then infected with H9IIIB virus at an approximate multiplicity of infection of 0.1 in the same incubation conditions.
Infected cells were quantified at ˜24 h post-infection, by counting the number of green cells in each well using an Acumen eX3 scanner. IC50s for the compounds in Table 4 were determined by non-linear 4-parameter curve fitting.
The antiviral persistence assay is meant to assess for the persistence of antiviral activity upon removal of the nucleoside. […] The publication AIDS Research and Therapy, 2009, 6:5, highlights the value of antiviral persistence.

[3] = system: HIV-1 (H9IIIB virus) replication in MT4-GFP cells; assay: Viking Assay: antiviral potency in a multiple round HIV-1 infection assay; type: cell-based; conditions: Human immunodeficiency virus 1, 10% normal human serum, inhibition of reproductive ratio R0 between ~48 h and ~72 h post-infection, read-out: Viking, IC50 (10% NHS)
Method: Assessing Antiviral Potency in a Multiple Round HIV-1 Infection Assay.
Cells were then washed and re-suspended in either RPMI 1640 containing 10% or 50% normal human serum at 1.6×10^5 cells/mL (10% or 50% NHS conditions) or in 100% normal human serum at 2×10^5 cells/mL (100% NHS conditions).
The increase in the number of green cells over ˜24 h period gives the reproductive ratio, R0, which is typically 5-15 and has been shown experimentally to be in logarithmic phase (data not shown). Inhibition of R0 is calculated for each well, and IC50s determined by non-linear 4-parameter curve fitting.

[4] = Human immunodeficiency virus 1, 24 h, read-out: IC50 24 h (nM)
[5] = Human immunodeficiency virus 1, read-out: IC50 72 h (nM)

SMILES | IC50 [1] [nM] | IC50 [2, 4] [nM] | IC50 [2, 5] [nM] | Fold shift IC50 72 h/24 h [2] | IC50 [3] [nM]
C#C[C@]1(COP(=O)(O)OP(=O)(O)OP(=O)(O)O)O[C@@H](n2cc(C)c3c(N)ncnc32)C[C@@H]1O [Example 15, ammonium (2R,3S,5R)-5-(4-amino-5-methyl-7H-pyrrolo[2,3-d]pyrimidin-7-yl)-2-ethynyl-3-hydroxytetrahydrofuran-2-yl)methyl triphosphate] | 6240 |  |  |  | 
N#C[C@]1(COP(=O)(O)OP(=O)(O)OP(=O)(O)O)O[C@@H](n2ccc3c(N)ncnc32)C[C@@H]1O [Example 18, bis-triethylammonium ((2R,3S,5R)-5-(4-amino-7H-pyrrolo[2,3-d]pyrimidin-7-yl)-2-cyano-3-hydroxytetrahydrofuran-2-yl)methyl triphosphate] | 4150 |  |  |  | 
C#C[C@]1(CO)O[C@@H](n2cc(I)c3c(N)ncnc32)C[C@@H]1O [Example 7, (2R,3S,5R)-5-(4-amino-5-iodo-7H-pyrrolo[2,3-d]pyrimidin-7-yl)-2-ethynyl-2-(hydroxymethyl)tetrahydrofuran-3-ol] |  | 17000 | 17000 | 1 | 1030
C#C[C@]1(CO)O[C@@H](n2cc(Br)c3c(N)ncnc32)C[C@@H]1O [Example 5, (2R,3S,5R)-5-(4-amino-5-bromo-7H-pyrrolo[2,3-d]pyrimidin-7-yl)-2-ethynyl-2-(hydroxymethyl)tetrahydrofuran-3-ol] |  | 22000 | > 42000 | >1.9 | 209
N#C[C@]1(CO)O[C@@H](n2ccc3c(N)ncnc32)C[C@@H]1O [Example 10, (2R,3S,5R)-5-(4-amino-7H-pyrrolo[2,3-d]pyrimidin-7-yl)-3-hydroxy-2-(hydroxymethyl)tetrahydrofuran-2-carbonitrile] |  | 170 | 1800 | 10.5 | 128
C#C[C@]1(COP(=O)(O)OP(=O)(O)OP(=O)(O)O)O[C@@H](c2cnn3c(N)ncnc23)C[C@@H]1O [Example 20, ammonium ((2R,3S,5R)-5-(4-aminopyrazolo[1,5-a][1,3,5]triazin-8-yl)-2-ethynyl-3-hydroxytetrahydrofuran-2-yl)methyl triphosphate] | 1290 |  |  |  | 
C#C[C@]1(COP(=O)(O)OP(=O)(O)OP(=O)(O)O)O[C@@H](c2ccc3c(N)ncnn23)C[C@@H]1O [Example 19, ammonium ((2R,3S,5R)-5-(4-aminopyrrolo[2,1-f][1,2,4]triazin-7-yl)-2-ethynyl-3-hydroxytetrahydrofuran-2-yl)methyl triphosphate] | 3540 |  |  |  | 
C#C[C@]1(COP(=O)(O)OP(=O)(O)OP(=O)(O)O)O[C@@H](n2cc(F)c3c(N)ncnc32)C[C@@H]1O [Example 14, ammonium ((2R,3S,5R)-5-(4-amino-5-fluoro-7H-pyrrolo[2,3-d]pyrimidin-7-yl)-2-ethynyl-3-hydroxytetrahydrofuran-2-yl)methyl triphosphate] | 210 |  |  |  | 
C#C[C@]1(CO)O[C@@H](n2cc(Cl)c3c(N)ncnc32)C[C@@H]1O [Example 6, (2R,3S,5R)-5-(4-amino-5-chloro-7H-pyrrolo[2,3-d]pyrimidin-7-yl)-2-ethynyl-2-(hydroxymethyl)tetrahydrofuran-3-ol] |  | 99 | 970 | 9.8 | 128
Cc1cn([C@H]2C[C@H](N=[N+]=[N-])[C@@H](CO)O2)c(=O)[nH]c1=O [AZT, 3′-azido-3′-deoxythymidine, reference compound] |  | 37 | 4710 | 127 | 37
C#C[C@]1(COP(=O)(O)OP(=O)(O)OP(=O)(O)O)O[C@@H](n2ccc3c(N)ncnc32)C[C@@H]1O [Example 13, ammonium ((2R,3S,5R)-5-(4-amino-7H-pyrrolo[2,3-d]pyrimidin-7-yl)-2-ethynyl-3-hydroxytetrahydrofuran-2-yl)methyl triphosphate] | 933 |  |  |  | 
C#C[C@]1(CO)O[C@@H](n2cc(C)c3c(N)ncnc32)C[C@@H]1O [Example 3, (2R,3S,5R)-5-(4-amino-5-methyl-7H-pyrrolo[2,3-d]pyrimidin-7-yl)-2-ethynyl-2-(hydroxymethyl)tetrahydrofuran-3-ol] |  | 470 | 2500 | 5.3 | 485
C#C[C@]1(COP(=O)(O)OP(=O)(O)OP(=O)(O)O)O[C@@H](c2cnc3c(N)ncnn23)C[C@@H]1O [Example 21, ammonium ((2R,3S,5R)-5-(4-aminoimidazo[2,1-f][1,2,4]triazin-7-yl)-2-ethynyl-3-hydroxytetrahydrofuran-2-yl)methyl triphosphate] | 905 |  |  |  | 
C#C[C@]1(COP(=O)(O)OP(=O)(O)OP(=O)(O)O)O[C@@H](n2ccc3c(N)nc(Cl)nc32)C[C@@H]1O [Example 16, bis-triethylammonium ((2R,3S,5R)-5-(4-amino-2-chloro-7H-pyrrolo[2,3-d]pyrimidin-7-yl)-2-ethynyl-3-hydroxytetrahydrofuran-2-yl)methyl triphosphate] | 1820 |  |  |  | 
C#C[C@]1(COP(=O)(O)OP(=O)(O)OP(=O)(O)O)O[C@@H](n2cc(Cl)c3c(N)ncnc32)C[C@@H]1O [Example 17, ammonium ((2R,3S,5R)-5-(4-amino-5-chloro-7H-pyrrolo[2,3-d]pyrimidin-7-yl)-2-ethynyl-3-hydroxytetrahydrofuran-2-yl)methyl triphosphate] | 842 |  |  |  | 
